{"source": "patent US20220226269A1", "about": "“METHODS AND COMPOSITIONS FOR MODULATION OF AN INTERSPECIES GUT BACTERIAL PATHWAY FOR LEVODOPA METABOLISM” (President and Fellows of Harvard College, priority 2019, published 2022)", "molecules": {"B1": {"name": "E. faecalis TyrDC (Enterococcus faecalis EnGen0310 = MMH594) (protein)", "chain": "MKNEKLAKGEMNLNALFIGDKAENGQLYKDLLIDLVDEHLGWRQNYMPQDMPVISSQERTSESYEKTVNHMKDVLNEISSRMRTHSVPWHTAGRYWGHMNSETLMPSLLAYNFAMLWNGNNVAYESSPATSQMEEEVGHEFAHLMSYKNGWGHIVADGSLANLEGLWYARNIKSLPFAMKEVKPELVAGKSDWELLNMPTKEIMDLLESAEDEIDEIKAHSARSGKHLQAIGKWLVPQTKHYSWLKAADIIGIGLDQVIPVPVDHNYRMDINELEKIVRGLAEEQIPVLGVVGVVGSTEEGAVDSIDKIIALRDELMKDGIYYYVHVDAAYGGYGRAIFLDEDNNFIPYEDLQDVHEEYGVFKEKKEHISREVYDAYKAIELAESVTIDPHKMGYIPYSAGGIVIQDIRMRDVISYFATYVFEKGADIPALLGAYILEGSKAGATAASVWAAHHVLPLNVAGYGKLIGASIEGSHHFYNFLNDLTFKVGDKEIEVHTLTHPDFNMVDYVFKEKGNDDLVAMNKLNHDVYDYASYVKGNIYNNEFITSHTDFAIPDYGNSPLKFVNSLGFSDEEWNRAGKVTVLRAAVMTPYMNDKEEFDVYAPKIQAALQEKLEQIYDVK"}}, "key": {"[1]": {"test_system": "human fecal microbiota", "description": "Fecal slurries from neurologically healthy human donors or Parkinson's patients were prepared as described in the ‘enrichment culturing’ section above. These slurries were diluted to a final volume of 300 μL in 20% glycerol and then aliquoted into individual tubes, flash-frozen in liquid nitrogen and stored at −80° C., allowing for experiments to be repeated with the same fecal sample multiple times without freeze-thawing."}, "[2]": {"test_system": "E. faecalis MMH594 cells", "assay": "L-dopa decarboxylation in anaerobic E. faecalis cultures with inhibitor"}, "[3]": {"target": "T1, H. sapiens AADC (Homo sapiens, UniProt P20711)", "T1 sequence (P20711 1-480)": "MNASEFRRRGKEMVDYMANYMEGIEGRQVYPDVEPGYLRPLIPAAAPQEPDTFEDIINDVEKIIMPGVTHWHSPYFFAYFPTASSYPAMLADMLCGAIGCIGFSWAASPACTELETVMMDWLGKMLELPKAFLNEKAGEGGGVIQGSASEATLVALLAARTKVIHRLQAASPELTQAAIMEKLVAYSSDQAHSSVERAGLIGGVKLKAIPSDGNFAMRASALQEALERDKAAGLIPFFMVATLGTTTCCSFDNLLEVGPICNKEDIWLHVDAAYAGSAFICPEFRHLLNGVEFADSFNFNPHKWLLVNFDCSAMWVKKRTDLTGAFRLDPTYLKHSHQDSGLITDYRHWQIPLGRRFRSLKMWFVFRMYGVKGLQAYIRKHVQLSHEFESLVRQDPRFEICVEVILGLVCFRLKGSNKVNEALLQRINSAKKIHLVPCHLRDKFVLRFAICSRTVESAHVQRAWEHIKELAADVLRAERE", "assay": "Inhibition of L-dopa decarboxylation by purified AADC (LC-MS/MS)"}, "[4]": {"settings": "cited from earlier work"}, "[5]": {"assay": "Solubility limit noted in the inhibition assays", "format": "physicochemical"}, "[6]": {"target": "T2, E. faecalis TyrDC (Enterococcus faecalis, UniProt P0DTQ4)", "T2 sequence (P0DTQ4 1-620)": "B1 chain", "assay": "Inhibition of L-dopa decarboxylation by purified TyrDC (LC-MS/MS)", "settings": "for preferential inhibition, AADC vs TyrDC: FIG. 4 panels B and E, in vitro; for IC50: IC50, L-dopa decarboxylation by TyrDC, purified E. faecalis TyrDC, 500 μM L-dopa, pH 5.5, best-fit ± standard error, n=3"}, "[7]": {"target": "T2, E. faecalis TyrDC", "assay": "Michaelis-Menten kinetics of E. faecalis TyrDC", "settings": "for Vmax / kcat: substrate of TyrDC, best-fit ± standard error, n=3", "protocol": "(§1) The enzyme reaction was then initiated by dissolving the preincubated enzyme-PLP mix 1:10 with substrate dissolved in 0.2 M sodium acetate buffer, pH 5.5. […] Aliquots of the enzyme reaction were quenched by diluting 10-fold into ice cold methanol at 20, 40, and 60 seconds after initiation. The quenched reaction was centrifuged to pellet precipitates and 5 μL of the supernatant was analyzed by LC-MS/MS using Method B described above. Rates were calculated as the substrate produced from 20 to 60 seconds and were fit to a standard Michaelis-Menten kinetics curve in Graphpad prism (version 7). All experiments were done in triplicate and were repeated at least twice. Reactions were performed at room temperature."}, "[8]": {"test_system": "co-cultures of E. faecalis and E. lenta", "assay": "L-dopa metabolism by co-cultures of E. faecalis and E. lenta with AFMT", "settings": "125 μM AFMT, 1 mM d3-phenyl-L-dopa, 48 hours", "protocol": "E. faecalis MMH594 WT or tyrDC mutant or E. lenta A2 or E. lenta DSM2243 were grown anaerobically for 48 hours from single colonies in BHI medium at 37° C. These starter cultures were normalized to an OD600=0.1 by dilution into fresh BHI medium. […] Cultures were grown for 48 hours at 37° C. and harvested by centrifugation."}, "[9]": {"assay": "Pharmacokinetic experiment in gnotobiotic mice colonized with E. faecalis MMH594", "format": "in vivo", "settings": "L-dopa+carbidopa+AFMT"}, "[10]": {"target": "T3, TyrDC (Enterococcus faecalis, UniProt P0DTQ4)", "T3 sequence (P0DTQ4 1-620)": "B1 chain", "assay": "Identification of a PLP-inhibitor adduct upon incubation of enzymes with AFMT", "format": "biochemical", "settings": "TyrDC or AADC incubated with AFMT for 1 hour", "description": "The same buffers as described above were used for each enzyme. 10 μM AADC or TyrDC was incubated with 200 μM PLP and 50 μM AFMT for one hour at room temperature. The reactions were quenched by boiling at 95° C. for 15 minutes. This mix was diluted 1:20 in LC-MS grade methanol and spun down to pellet precipitates. The supernatant was analyzed by LC-MS using Method E described above. The predicted adduct was identified based on the work described in."}, "[11]": {"test_system": "HeLa cells", "assay": "MTS/MTT assay for HeLa cell viability in the presence of AFMT", "format": "cell-based", "settings": "two days treatment", "description": "HeLa cells were seeded in 100 μL growth medium [(DMEM medium supplemented with 10% FBS (2 mL) and 1× Antibiotic-Antimycotic (100× stock, Invitrogen))] and incubated at 37° C. in 5% CO2 incubator for 1 day. Wells containing growth medium only were used as background controls. Cells were treated with various concentrations of AFMT in quadruplicate. Two days post treatment, 20 μL of CellTiter 96® AQueous One Solution Reagent (Promega) was added to each well. The plates were incubated at 37° C. in 5% CO2 incubator for 2 hours followed by absorbance measurement at 490 nm. To calculate relative cell viability, the readings for each compound concentration were subtracted from the background controls and normalized to vehicle controls.\nHeLa cells were seeded into 96-well plates at a density of 1×10^5 cells per well in 100 μL of growth medium [(DMEM medium supplemented with 10% FBS (2 mL) and 1× Antibiotic-Antimycotic (100× stock, Invitrogen))] and incubated at 37° C. in a 5% CO2 incubator for 1 day. Wells containing growth medium only were used as background controls. Cells were treated with various concentrations of AFMT in quadruplicate. […] To calculate relative cell viability, the readings for each compound concentration were subtracted from the background controls and normalized to vehicle controls"}, "[12]": {"test_system": "E. lenta A2", "assay": "Effect of tungstate on dopamine dehydroxylation in cultures of E. lenta A2", "format": "cell-based, Eggerthella lenta", "settings": "48 hours, 0.5 mM dopamine"}, "[13]": {"test_system": "E. lenta A2", "assay": "Anaerobic growth of E. lenta A2 in the presence of tungstate", "format": "cell-based, Eggerthella lenta", "settings": "BHI medium, varying concentrations of tungstate"}, "[14]": {"test_system": "E. lenta A2 cell lysates", "assay": "E. lenta A2 lysate assays with tungstate", "format": "biochemical, Eggerthella lenta", "settings": "500 μM dopamine, 12 hours, room temperature", "description": "E. lenta A2 was grown either without or with 500 μM dopamine in BHI medium containing 1% (w/v) arginine and 10 mM formate. Cultures were spun down at OD600=0.500 and cell pellets were washed twice with anaerobic, sterile PBS to remove dopamine and any m-tyramine that had accumulated in the culture. Pellets were lysed anaerobically in 50 mM Tris pH 8 followed by addition of 500 μM dopamine (DA) to lysates. Lysates were left at room temperature for 12 hours and were analyzed for m-tyramine production by LC-MS/MS. Peak heights show the relative intensity of each mass and all chromatograms are shown on the same scale.\n10 mL turbid 48-hour starter cultures of E. lenta A2 in BHI medium were diluted 1:100 into 20 mL BHI medium containing 1% arginine and 10 mM formate with or without 500 μM dopamine. Cells were pelleted by centrifugation when cultures reached OD600=0.500. Cell pellets were washed twice with PBS and were then re-suspended in 800 μL 50 mM Tris pH 8 containing 4 mg/mL […] protease inhibitor cocktail, followed by anaerobic sonication to lyse the cells. Dopamine was added to crude lysates at a final concentration of 500 μM and the reactions were left for 12 hours at room temperature under anaerobic conditions. […] Supernatant were analyzed by LC-MS/MS to measure dopamine and m-tyramine production using Method A described above. […]"}, "[15]": {"substrate": "N[C@@H](Cc1ccc(O)cc1)C(=O)O", "assay": "purified protein, by the assay type", "settings": "other: substrate of TyrDC; best-fit ± standard error, n=3; pH 5.5", "protocol": "as §1"}, "[16]": {"substrate": "N[C@@H](Cc1ccc(O)c(O)c1)C(=O)O", "assay": "purified protein, by the assay type", "settings": "other: substrate of TyrDC, pH 5.5"}, "[17]": {"settings": "read-out: inhibition of AADC at solubility limit"}}, "note": "Where “and” joins values, the source holds several entries; their conditions need not be identical. Equal entries are not always repeated. Entries after “also recorded” stand apart in the source; their conditions may differ.", "data": [{"molecule": "C[C@@](Cc1ccc(O)c(O)c1)(NN)C(=O)O", "note": "[carbidopa]", "values": [{"measurement": "kinetics of L-dopa degradation in stool samples", "setting": "[1]; 2 mM carbidopa, 1 mM d3-phenyl-L-dopa, 72 hours", "result": "did not alter"}, {"measurement": "endpoint m-tyramine production in stool samples", "setting": "[1]; 2 mM carbidopa, Parkinson's patients and neurologically healthy controls", "result": "did not alter"}, {"measurement": "inhibition at 2000 µM", "setting": "[2]; Enterococcus faecalis, MMH594CELLS, read-out: inhibition of L-dopa decarboxylation by E. faecalis cultures, at solubility limit of 2 mM", "result": "~50", "unit": "%"}, {"measurement": "inhibition of L-dopa decarboxylation by E. faecalis cultures", "setting": "[2]; at solubility limit of 2 mM", "result": 50, "unit": "% inhibition at"}, {"measurement": "IC50", "setting": "[3]", "result": 0.21, "unit": "µM"}, {"measurement": "m-tyramine production in patients", "setting": "[4]; carbidopa administration, previous findings", "result": "does not impact"}, {"measurement": "solubility", "setting": "[5]; E. faecalis cultures, plasma or biological fluid", "result": 2000, "unit": "µM"}, {"measurement": "fold less active toward TyrDC relative to AADC", "setting": "[6]; E. faecalis TyrDC vs H. sapiens AADC", "result": 200, "unit": "fold"}, {"measurement": "preferential inhibition, AADC vs TyrDC", "setting": "[6]", "result": "preferentially inhibits human amino acid decarboxylase (AADC) over TyrDC"}, {"measurement": "IC50", "setting": "[6]", "result": 52, "unit": "µM"}]}, {"molecule": "N[C@@H](Cc1ccc(O)c(O)c1)C(=O)O", "note": "[L-dopa]", "values": [{"measurement": "Vmax", "setting": "[7]", "result": "5.553 ± 0.165 ^ μM/s"}, {"measurement": "kcat", "setting": "[7]", "result": "55.53 ± 2.98 ^ 1/s"}, {"measurement": "L-dopa reaching the brain", "setting": "[4]; extensive pre-systemic metabolism in the gut", "result": "1-5%"}]}, {"molecule": "N[C@@](CF)(Cc1ccc(O)cc1)C(=O)O", "note": "[AFMT]", "values": [{"measurement": "L-dopa decarboxylation in gut microbiota samples", "setting": "[1]; Parkinson's disease patients and neurologically healthy control subjects, 1 mM d3-phenyl-L-dopa, 72 hours", "result": "completely inhibited"}, {"measurement": "L-dopa decarboxylation by co-cultures of E. faecalis and E. lenta", "setting": "[8]", "result": "reduced"}, {"measurement": "serum L-dopa relative to vehicle controls", "setting": "[9]", "result": "higher"}, {"measurement": "fold outperforming carbidopa in E. faecalis cultures", "setting": "[2]; AFMT vs carbidopa", "result": 1000, "unit": "fold"}, {"measurement": "EC50", "setting": "[2]; Enterococcus faecalis, MMH594CELLS, read-out: EC50, L-dopa decarboxylation in E. faecalis cultures, E. faecalis MMH594 cells, 0.5 mM L-dopa, anaerobic", "result": 1.4, "unit": "µM"}, {"measurement": "inhibition at 650 µM", "setting": "[3]; [17]", "result": "~20", "unit": "%"}, {"measurement": "inhibition at 700 µM", "setting": "[3]; [17]", "result": 20, "unit": "%"}, {"measurement": "covalent PLP adduct formation", "setting": "[10]", "result": "formed a covalent PLP adduct only in the presence of TyrDC"}, {"measurement": "toxicity to eukaryotic cells", "setting": "[11]", "result": "non-toxic"}, {"measurement": "solubility", "setting": "[5]; AADC inhibition assay mixture, AADC inhibition assay", "result": 650, "unit": "µM"}, {"measurement": "preferential inhibition, AADC vs TyrDC", "setting": "[6]", "result": "preferentially inhibits TyrDC over AADC"}, {"measurement": "IC50", "setting": "[6]", "result": "4.7 µM and 4.71 µM"}]}, {"molecule": "N[C@@H](Cc1ccc(O)cc1)C(=O)O", "note": "[Tyrosine, L-tyrosine]", "values": [{"measurement": "fold higher catalytic efficiency compared to L-dopa", "setting": "[7]; TyrDC", "result": 5, "unit": "fold"}, {"measurement": "Vmax", "setting": "[7]", "result": "6.363 ± 0.102", "unit": "µM/s"}, {"measurement": "kcat", "setting": "[7]", "result": "63.63 ± 1.02", "unit": "s⁻¹"}]}, {"molecule": "[Na+].[Na+].[O]=[W](=[O])([O-])[O-]", "note": "[tungstate, Sodium tungstate]", "values": [{"measurement": "dopamine dehydroxylation by E. lenta A2 cultures", "setting": "[12]", "result": "inhibits"}, {"measurement": "growth of E. lenta A2", "setting": "[13]", "result": "without affecting growth; also recorded: no obvious dose-dependent growth defect"}, {"measurement": "dopamine dehydroxylation by E. lenta A2 cell lysates", "setting": "[14]", "result": "had no effect; also recorded: no dose-dependent effect"}]}, {"molecule": "B1", "values": [{"measurement": "Km", "setting": "[15]", "result": "314.9 ± 15.5", "unit": "µM"}, {"measurement": "Km", "setting": "[16]; best-fit ± standard error, n=3", "result": "1475 ± 79.28 ^ μM"}, {"measurement": "Km", "setting": "[16]", "result": 1.5, "unit": "mM"}]}]}
